Reference: the supplement of paper PMC10307832

Columns and labels:
Experiment in all cases: relative viability (nuclei count vs DMSO), 5 days (fraction); higher = more cells survive
Tozasertib + Olaparib = compound: Cc1cc(Nc2cc(N3CCN(C)CC3)nc(Sc3ccc(NC(=O)C4CC4)cc3)n2)n[nH]1 [Tozasertib] + O=C(c1cc(Cc2n[nH]c(=O)c3ccccc23)ccc1F)N1CCN(C(=O)C2CC2)CC1 [Olaparib] (partner 8 µM)
Procedure, shortened: (§1)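 Relative viability equals treated-well nuclei counts divided by vehicle-well nuclei counts. Counts came from 4× images of lung cancer cell lines grown in 1536-well plates for 5 days after pin-tool dosing on the day after seeding. Dosing used one drug alone or a fixed anchor-drug dose plus five library-drug doses (not always all listed) in √10 steps, and values are medians of duplicate plates.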

Tozasertib + Vorinostat = compound: Cc1cc(Nc2cc(N3CCN(C)CC3)nc(Sc3ccc(NC(=O)C4CC4)cc3)n2)n[nH]1 [Tozasertib] + O=C(CCCCCCC(=O)Nc1ccccc1)NO [Vorinostat] (partner 1 µM)
Procedure, shortened: as §1

Tozasertib + Decitabine = compound: Cc1cc(Nc2cc(N3CCN(C)CC3)nc(Sc3ccc(NC(=O)C4CC4)cc3)n2)n[nH]1 [Tozasertib] + Nc1ncn([C@H]2C[C@H](O)[C@@H](CO)O2)c(=O)n1 [Decitabine] (partner 2 µM)
Procedure, shortened: as §1

Tozasertib + Palbociclib = compound: Cc1cc(Nc2cc(N3CCN(C)CC3)nc(Sc3ccc(NC(=O)C4CC4)cc3)n2)n[nH]1 [Tozasertib] + CC(=O)c1c(C)c2cnc(Nc3ccc(N4CCNCC4)cn3)nc2n(C2CCCC2)c1=O [Palbociclib] (partner 0.5 µM)
Procedure, shortened: as §1

Tozasertib + Pemetrexed = compound: Cc1cc(Nc2cc(N3CCN(C)CC3)nc(Sc3ccc(NC(=O)C4CC4)cc3)n2)n[nH]1 [Tozasertib] + Nc1nc2[nH]cc(CCc3ccc(C(=O)N[C@@H](CCC(=O)O)C(=O)O)cc3)c2c(=O)[nH]1 [Pemetrexed] (partner 0.2 µM)
Procedure, shortened: as §1

Tozasertib + Trametinib = compound: Cc1cc(Nc2cc(N3CCN(C)CC3)nc(Sc3ccc(NC(=O)C4CC4)cc3)n2)n[nH]1 [Tozasertib] + CC(=O)Nc1cccc(-n2c(=O)n(C3CC3)c(=O)c3c(Nc4ccc(I)cc4F)n(C)c(=O)c(C)c32)c1 [Trametinib] (partner 0.02 µM)
Procedure, shortened: as §1

Tozasertib + AZD7762 = compound: Cc1cc(Nc2cc(N3CCN(C)CC3)nc(Sc3ccc(NC(=O)C4CC4)cc3)n2)n[nH]1 [Tozasertib] + NC(=O)Nc1cc(-c2cccc(F)c2)sc1C(=O)N[C@H]1CCCNC1 [AZD7762] (partner 0.2 µM)
Procedure, shortened: as §1

Tozasertib + OSI-027 = compound: Cc1cc(Nc2cc(N3CCN(C)CC3)nc(Sc3ccc(NC(=O)C4CC4)cc3)n2)n[nH]1 [Tozasertib] + COc1cccc2cc(-c3nc([C@H]4CC[C@H](C(=O)O)CC4)n4ncnc(N)c34)[nH]c12 [OSI-027] (partner 0.5 µM); conditions: first compound 0.1265 µM
Procedure, shortened: as §1

Tozasertib = compound: Cc1cc(Nc2cc(N3CCN(C)CC3)nc(Sc3ccc(NC(=O)C4CC4)cc3)n2)n[nH]1 [Tozasertib]
Procedure, shortened: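 Only plates meeting two conditions passed: control CV below 25% and at least one doubling. Lung cancer cell lines, kept overnight at 37 °C in 1536-well plates, were pinned with five library-drug doses (not always all listed) √10 apart on vehicle-anchored plates and grown 5 days without medium change. A one-step fix, permeabilisation and Hoechst stain preceded 4× imaging and MetaXpress nuclear counting. Viability equals treated-well nuclei divided by vehicle-well nuclei, as the median over plates.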

Tozasertib + Crizotinib = compound: Cc1cc(Nc2cc(N3CCN(C)CC3)nc(Sc3ccc(NC(=O)C4CC4)cc3)n2)n[nH]1 [Tozasertib] + C[C@@H](Oc1cc(-c2cnn(C3CCNCC3)c2)cnc1N)c1c(Cl)ccc(F)c1Cl [Crizotinib] (partner 1 µM)
Procedure, shortened: as §1

Tozasertib + Navitoclax = compound: Cc1cc(Nc2cc(N3CCN(C)CC3)nc(Sc3ccc(NC(=O)C4CC4)cc3)n2)n[nH]1 [Tozasertib] + CC1(C)CCC(c2ccc(Cl)cc2)=C(CN2CCN(c3ccc(C(=O)NS(=O)(=O)c4ccc(N[C@H](CCN5CCOCC5)CSc5ccccc5)c(S(=O)(=O)C(F)(F)F)c4)cc3)CC2)C1 [Navitoclax] (partner 0.5 µM)
Procedure, shortened: as §1

Tozasertib + Linsitinib = compound: Cc1cc(Nc2cc(N3CCN(C)CC3)nc(Sc3ccc(NC(=O)C4CC4)cc3)n2)n[nH]1 [Tozasertib] + C[C@]1(O)C[C@@H](c2nc(-c3ccc4ccc(-c5ccccc5)nc4c3)c3c(N)nccn32)C1 [Linsitinib] (partner 1 µM)
Procedure, shortened: as §1

Tozasertib + Bortezomib = compound: Cc1cc(Nc2cc(N3CCN(C)CC3)nc(Sc3ccc(NC(=O)C4CC4)cc3)n2)n[nH]1 [Tozasertib] + CC(C)C[C@H](NC(=O)[C@H](Cc1ccccc1)NC(=O)c1cnccn1)B(O)O [Bortezomib] (partner 0.002 µM)
Procedure, shortened: as §1

Tozasertib + Lapatinib = compound: Cc1cc(Nc2cc(N3CCN(C)CC3)nc(Sc3ccc(NC(=O)C4CC4)cc3)n2)n[nH]1 [Tozasertib] + CS(=O)(=O)CCNCc1ccc(-c2ccc3ncnc(Nc4ccc(OCc5cccc(F)c5)c(Cl)c4)c3c2)o1 [Lapatinib] (partner 2 µM)
Procedure, shortened: as §1

Tozasertib + Pictilisib = compound: Cc1cc(Nc2cc(N3CCN(C)CC3)nc(Sc3ccc(NC(=O)C4CC4)cc3)n2)n[nH]1 [Tozasertib] + CS(=O)(=O)N1CCN(Cc2cc3nc(-c4cccc5[nH]ncc45)nc(N4CCOCC4)c3s2)CC1 [Pictilisib] (partner 1 µM)
Procedure, shortened: as §1

Tozasertib + Alpelisib = compound: Cc1cc(Nc2cc(N3CCN(C)CC3)nc(Sc3ccc(NC(=O)C4CC4)cc3)n2)n[nH]1 [Tozasertib] + Cc1nc(NC(=O)N2CCC[C@H]2C(N)=O)sc1-c1ccnc(C(C)(C)C(F)(F)F)c1 [Alpelisib] (partner 2 µM)
Procedure, shortened: as §1

Tozasertib + Foretinib = compound: Cc1cc(Nc2cc(N3CCN(C)CC3)nc(Sc3ccc(NC(=O)C4CC4)cc3)n2)n[nH]1 [Tozasertib] + COc1cc2c(Oc3ccc(NC(=O)C4(C(=O)Nc5ccc(F)cc5)CC4)cc3F)ccnc2cc1OCCCN1CCOCC1 [Foretinib] (partner 0.25 µM)
Procedure, shortened: as §1

## NCI-H1648
Tozasertib + Olaparib; first compound 0.004 µM
  relative viability: 1.64
Tozasertib + Olaparib; first compound 0.01265 µM
  relative viability: 0.767
Tozasertib + Olaparib; first compound 0.04 µM
  relative viability: 0.844
Tozasertib + Olaparib; first compound 0.1265 µM
  relative viability: 0.531
Tozasertib + Vorinostat; first compound 0.004 µM
  relative viability: 0.42
Tozasertib + Vorinostat; first compound 0.01265 µM
  relative viability: 0.296
Tozasertib + Vorinostat; first compound 0.04 µM
  relative viability: 0.425
Tozasertib + Vorinostat; first compound 0.1265 µM
  relative viability: 0.379
Tozasertib + Decitabine; first compound 0.004 µM
  relative viability: 0.461
Tozasertib + Decitabine; first compound 0.01265 µM
  relative viability: 0.461
Tozasertib + Decitabine; first compound 0.04 µM
  relative viability: 0.383
Tozasertib + Decitabine; first compound 0.1265 µM
  relative viability: 0.401
Tozasertib + Palbociclib; first compound 0.004 µM
  relative viability: 0.279
Tozasertib + Palbociclib; first compound 0.01265 µM
  relative viability: 0.304
Tozasertib + Palbociclib; first compound 0.04 µM
  relative viability: 0.276
Tozasertib + Palbociclib; first compound 0.1265 µM
  relative viability: 0.255
Tozasertib + Pemetrexed; first compound 0.004 µM
  relative viability: 0.891
Tozasertib + Pemetrexed; first compound 0.01265 µM
  relative viability: 0.665
Tozasertib + Pemetrexed; first compound 0.04 µM
  relative viability: 0.773
Tozasertib + Pemetrexed; first compound 0.1265 µM
  relative viability: 0.615
Tozasertib + Trametinib; first compound 0.004 µM
  relative viability: 0.488
Tozasertib + Trametinib; first compound 0.01265 µM
  relative viability: 0.444
Tozasertib + Trametinib; first compound 0.04 µM
  relative viability: 0.425
Tozasertib + Trametinib; first compound 0.1265 µM
  relative viability: 0.41
Tozasertib + AZD7762; first compound 0.004 µM
  relative viability: 0.717
Tozasertib + AZD7762; first compound 0.01265 µM
  relative viability: 0.619
Tozasertib + AZD7762; first compound 0.04 µM
  relative viability: 0.596
Tozasertib + AZD7762; first compound 0.1265 µM
  relative viability: 0.393
Tozasertib + OSI-027
  relative viability: 0.237
Tozasertib; 0.01265 µM
  relative viability: 0.779
Tozasertib; 0.04 µM
  relative viability: 0.743
Tozasertib; 0.1 µM, anchor plate
  relative viability: 0.497
Tozasertib; 0.1265 µM
  relative viability: 0.79

## NCI-H1299
Tozasertib + Crizotinib; first compound 0.004 µM
  relative viability: 0.998
Tozasertib + Crizotinib; first compound 0.01265 µM
  relative viability: 0.996
Tozasertib + Crizotinib; first compound 0.04 µM
  relative viability: 0.952
Tozasertib + Crizotinib; first compound 0.1265 µM
  relative viability: 0.761
Tozasertib + Olaparib; first compound 0.004 µM
  relative viability: 0.982
Tozasertib + Olaparib; first compound 0.01265 µM
  relative viability: 0.939
Tozasertib + Olaparib; first compound 0.04 µM
  relative viability: 0.943
Tozasertib + Olaparib; first compound 0.1265 µM
  relative viability: 0.961
Tozasertib + Navitoclax; first compound 0.004 µM
  relative viability: 1.1
Tozasertib + Navitoclax; first compound 0.01265 µM
  relative viability: 1.04
Tozasertib + Navitoclax; first compound 0.04 µM
  relative viability: 1.06
Tozasertib + Navitoclax; first compound 0.1265 µM
  relative viability: 1.07
Tozasertib + Linsitinib; first compound 0.004 µM
  relative viability: 0.952
Tozasertib + Linsitinib; first compound 0.01265 µM
  relative viability: 0.979
Tozasertib + Linsitinib; first compound 0.04 µM
  relative viability: 0.988
Tozasertib + Linsitinib; first compound 0.1265 µM
  relative viability: 0.597
Tozasertib + Bortezomib; first compound 0.004 µM
  relative viability: 1.07
Tozasertib + Bortezomib; first compound 0.01265 µM
  relative viability: 1.01
Tozasertib + Bortezomib; first compound 0.04 µM
  relative viability: 1.02
Tozasertib + Bortezomib; first compound 0.1265 µM
  relative viability: 1.03
Tozasertib + Lapatinib; first compound 0.004 µM
  relative viability: 1.03
Tozasertib + Lapatinib; first compound 0.01265 µM
  relative viability: 0.947
Tozasertib + Lapatinib; first compound 0.1265 µM
  relative viability: 0.703
Tozasertib + Pictilisib; first compound 0.004 µM
  relative viability: 0.951
Tozasertib + Pictilisib; first compound 0.01265 µM
  relative viability: 0.808
Tozasertib + Pictilisib; first compound 0.04 µM
  relative viability: 0.75
Tozasertib + Pictilisib; first compound 0.1265 µM
  relative viability: 0.615
Tozasertib + Alpelisib; first compound 0.004 µM
  relative viability: 1.08
Tozasertib + Alpelisib; first compound 0.01265 µM
  relative viability: 1.13
Tozasertib + Alpelisib; first compound 0.04 µM
  relative viability: 1.04
Tozasertib + Alpelisib; first compound 0.1265 µM
  relative viability: 1.05
Tozasertib + Foretinib; first compound 0.004 µM
  relative viability: 1.17
Tozasertib + Foretinib; first compound 0.01265 µM
  relative viability: 1.07
Tozasertib + Foretinib; first compound 0.04 µM
  relative viability: 1.08
Tozasertib + Foretinib; first compound 0.1265 µM
  relative viability: 0.499
Tozasertib; 0.004 µM
  relative viability: 1.04
Tozasertib; 0.01265 µM
  relative viability: 1.02
Tozasertib; 0.04 µM
  relative viability: 1.01
Tozasertib; 0.1265 µM
  relative viability: 1.02
